Key:
[1] = molecular target: T1, NLuc (NanoLuc) (Oplophorus gracilirostris, UniProt Q9GV45, A31E/Q38R/Q45L/L54V/A60N/K70R/V71I/A81I/F95D/L99Q/M102K/I117V/P142E/Q151K/Y165I/N193R); assay: bioluminescence imaging and spectra, COS-7; assay type: cell-based; conditions: live cells and lysate; […] substrate in PBS
T1 construct: engineered NanoLuc variant of the 19 kDa subunit, expressed from pcDNA3.1(+) in COS-7, mostly cytosolic

[2] = molecular target: T1, NLuc (NanoLuc); assay: bioluminescence spectra, COS-7 lysate; assay type: biochemical; conditions: substrate solution […] in PBS
[3] = molecular target: T2, LSSmNep-GR5GS-NLuc (GR HLBD) (Homo sapiens, UniProt P04150); assay: NIR-BRET, COS-7 stably expressing single-chain probe; assay type: cell-based; conditions: live cells stimulated […] h; DBlueC substrate; […] nm filter
T2 construct: gene NR3C1; stably expressed in COS-7
T2 sequence (P04150 486-777): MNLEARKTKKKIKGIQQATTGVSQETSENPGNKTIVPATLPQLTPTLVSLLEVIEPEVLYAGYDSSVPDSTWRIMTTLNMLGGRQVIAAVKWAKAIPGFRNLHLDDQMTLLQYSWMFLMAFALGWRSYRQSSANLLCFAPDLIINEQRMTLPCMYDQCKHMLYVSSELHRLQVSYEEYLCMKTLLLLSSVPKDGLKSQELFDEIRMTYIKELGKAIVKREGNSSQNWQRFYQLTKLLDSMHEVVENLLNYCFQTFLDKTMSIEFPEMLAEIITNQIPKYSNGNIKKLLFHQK

T1 sequence (Q9GV45 28-196 with the stated changes): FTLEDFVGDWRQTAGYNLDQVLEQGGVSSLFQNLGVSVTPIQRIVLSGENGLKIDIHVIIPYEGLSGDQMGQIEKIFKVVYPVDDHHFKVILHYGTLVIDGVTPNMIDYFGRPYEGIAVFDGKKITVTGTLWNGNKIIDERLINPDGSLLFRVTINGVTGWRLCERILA

Oc1c(Cc2ccccc2)nc2c(Cc3ccccc3)nc(-c3ccccc3)cn12 [DBlueC, DeepBlueC] was tested, and the “bioluminescence imaging and spectra, COS-7” value [1] was “DBlueC and nCTZ were exclusively bright with NLuc and ALuc47, respectively”.
For Oc1ccc(Cc2nc3c(Cc4ccccc4)nc(-c4ccc(O)cc4)cn3c2O)cc1 [nCTZ, native coelenterazine], the “bioluminescence spectra, COS-7 lysate” value [2] was “The nCTZ was commonly bright among all the tested marine luciferases”.
C[C@]12CCC(=O)C=C1CC[C@@H]1[C@@H]2[C@@H](O)C[C@@]2(C)[C@H]1CC[C@]2(O)C(=O)CO [cortisol] was tested, and the “fold NIR-BRET intensity at 10^-6 M” value [3] was 1.3 fold.
